For this data set, the system named is CCRIS mutagenicity, Ames/micronucleus/aberration tests. Put plainly: CCRIS mutagenicity studies.
The mark [1] stands for this setting: Test System: AMES SALMONELLA TYPHIMURIUM, Strain/Indicator: TA98, Metabolic Activation: NONE, Method: PREINCUBATION
[2] abbreviates: Test System: AMES SALMONELLA TYPHIMURIUM, Strain/Indicator: TA100, Metabolic Activation: NONE, Method: PREINCUBATION

Structures are written as SMILES. Calls of active or inactive are those of the source. How the calls were made is not given here.

With `O=[N+]([O-])c1c(O)c(Cl)cc(Cl)c1Cl`, the mutagenic call is “inactive; negative” (Test System: AMES SALMONELLA TYPHIMURIUM, Strain/Indicator: TA97, Metabolic Activation: HAMSTER, LIVER, S-9, AROCLOR 1254 (5 OR 10%), Method: PREINCUBATION); “inactive; negative” (Test System: AMES SALMONELLA TYPHIMURIUM, Strain/Indicator: TA97, Metabolic Activation: HAMSTER, LIVER, S-9, AROCLOR 1254 (30%), Method: PREINCUBATION); “inactive; negative” (Test System: AMES SALMONELLA TYPHIMURIUM, Strain/Indicator: TA97, Metabolic Activation: NONE, Method: PREINCUBATION); “inactive; negative” (Test System: AMES SALMONELLA TYPHIMURIUM, Strain/Indicator: TA97, Metabolic Activation: RAT, LIVER, S-9, AROCLOR 1254 (10%), Method: PREINCUBATION); “inactive; negative” (Test System: AMES SALMONELLA TYPHIMURIUM, Strain/Indicator: TA97, Metabolic Activation: RAT, LIVER, S-9, AROCLOR 1254 (30%), Method: PREINCUBATION); “inactive; negative” (Test System: AMES SALMONELLA TYPHIMURIUM, Strain/Indicator: TA98, Metabolic Activation: HAMSTER, LIVER, S-9, AROCLOR 1254 (10%), Method: PREINCUBATION). Besides, the mutagenic call is “inactive; negative” (Test System: AMES SALMONELLA TYPHIMURIUM, Strain/Indicator: TA98, Metabolic Activation: HAMSTER, LIVER, S-9, AROCLOR 1254 (30%), Method: PREINCUBATION); “inactive; negative” under setting [1]; “inactive; negative” (Test System: AMES SALMONELLA TYPHIMURIUM, Strain/Indicator: TA98, Metabolic Activation: RAT, LIVER, S-9, AROCLOR 1254 (10%), Method: PREINCUBATION); “inactive; negative” (Test System: AMES SALMONELLA TYPHIMURIUM, Strain/Indicator: TA98, Metabolic Activation: RAT, LIVER, S-9, AROCLOR 1254 (30%), Method: PREINCUBATION); “inactive; negative” (Test System: AMES SALMONELLA TYPHIMURIUM, Strain/Indicator: TA100, Metabolic Activation: HAMSTER, LIVER, S-9, AROCLOR 1254 (10%), Method: PREINCUBATION); “inactive; negative” (Test System: AMES SALMONELLA TYPHIMURIUM, Strain/Indicator: TA100, Metabolic Activation: HAMSTER, LIVER, S-9, AROCLOR 1254 (30%), Method: PREINCUBATION). Also, the mutagenic call is “inactive; negative” under setting [2]; “inactive; negative” (Test System: AMES SALMONELLA TYPHIMURIUM, Strain/Indicator: TA100, Metabolic Activation: RAT, LIVER, S-9, AROCLOR 1254 (10%), Method: PREINCUBATION); “inactive; negative” (Test System: AMES SALMONELLA TYPHIMURIUM, Strain/Indicator: TA100, Metabolic Activation: RAT, LIVER, S-9, AROCLOR 1254 (30%), Method: PREINCUBATION); “inactive; negative” (Test System: AMES SALMONELLA TYPHIMURIUM, Strain/Indicator: TA1535, Metabolic Activation: HAMSTER, LIVER, S-9, AROCLOR 1254 (10%), Method: PREINCUBATION); “inactive; negative” (Test System: AMES SALMONELLA TYPHIMURIUM, Strain/Indicator: TA1535, Metabolic Activation: HAMSTER, LIVER, S-9, AROCLOR 1254 (30%), Method: PREINCUBATION); “inactive; negative” (Test System: AMES SALMONELLA TYPHIMURIUM, Strain/Indicator: TA1535, Metabolic Activation: NONE, Method: PREINCUBATION). In addition, the mutagenic call was “inactive; negative” (Test System: AMES SALMONELLA TYPHIMURIUM, Strain/Indicator: TA1535, Metabolic Activation: RAT, LIVER, S-9, AROCLOR 1254 (10%), Method: PREINCUBATION); “inactive; negative” (Test System: AMES SALMONELLA TYPHIMURIUM, Strain/Indicator: TA1535, Metabolic Activation: RAT, LIVER, S-9, AROCLOR 1254 (30%), Method: PREINCUBATION); “inactive; negative” (Test System: AMES SALMONELLA TYPHIMURIUM, Strain/Indicator: TA1537, Metabolic Activation: HAMSTER, LIVER, S-9, AROCLOR 1254 (30%), Method: PREINCUBATION); “inactive; negative” (Test System: AMES SALMONELLA TYPHIMURIUM, Strain/Indicator: TA1537, Metabolic Activation: NONE, Method: PREINCUBATION); “inactive; negative” (Test System: AMES SALMONELLA TYPHIMURIUM, Strain/Indicator: TA1537, Metabolic Activation: RAT, LIVER, S-9, AROCLOR 1254 (30%), Method: PREINCUBATION).

Consider `Fc1cnc2c(ccc3ncc(F)cc32)c1`, for which the mutagenic call (Test System: AMES SALMONELLA TYPHIMURIUM, Strain/Indicator: TA100, Metabolic Activation: RAT, LIVER, S-9, PHENOBARBITAL AND 5,6-BENZOFLAVONE, Method: PREINCUBATION) was “inactive; negative”.

Consider `O=[N+]([O-])c1cc(O)c2ccc3cccc4ccc1c2c34`, for which the mutagenic call is, setting by setting: (Test System: AMES SALMONELLA TYPHIMURIUM, Strain/Indicator: TA98(1,8-DNP6), Metabolic Activation: NONE, Method: PREINCUBATION) “active; positive”; (Test System: AMES SALMONELLA TYPHIMURIUM, Strain/Indicator: TA98(1,8-DNP6), Metabolic Activation: NONE, Method: STANDARD PLATE) “active; positive”; (Test System: AMES SALMONELLA TYPHIMURIUM, Strain/Indicator: TA98(1,8-DNP6), Metabolic Activation: RAT, LIVER, S-9, AROCLOR 1254, Method: STANDARD PLATE) “active; positive”; (Test System: AMES SALMONELLA TYPHIMURIUM, Strain/Indicator: TA98(NR), Metabolic Activation: NONE, Method: PREINCUBATION) “active; positive”; (Test System: AMES SALMONELLA TYPHIMURIUM, Strain/Indicator: TA98(NR), Metabolic Activation: NONE, Method: STANDARD PLATE) “active; positive”; (Test System: AMES SALMONELLA TYPHIMURIUM, Strain/Indicator: TA98(NR), Metabolic Activation: RAT, LIVER, S-9, AROCLOR 1254, Method: STANDARD PLATE) “active; positive”. The mutagenic call under setting [1] is “active; positive”; the mutagenic call (Test System: AMES SALMONELLA TYPHIMURIUM, Strain/Indicator: TA98, Metabolic Activation: RAT, LIVER, S-9, AROCLOR 1254, Method: PREINCUBATION) is “active; positive”; the mutagenic call (Test System: AMES SALMONELLA TYPHIMURIUM, Strain/Indicator: TA98, Metabolic Activation: RAT, LIVER, S-9, AROCLOR 1254, Method: STANDARD PLATE) was “active; positive”; the mutagenic call under setting [2] is “active; positive”; the mutagenic call (Test System: AMES SALMONELLA TYPHIMURIUM, Strain/Indicator: TA100, Metabolic Activation: RAT, LIVER, S-9, AROCLOR 1254, Method: PREINCUBATION) was “active; positive”; the mutagenic call (Test System: AMES SALMONELLA TYPHIMURIUM, Strain/Indicator: YG1024, Metabolic Activation: NONE, Method: STANDARD PLATE) is “active; positive”. The mutagenic call is, setting by setting: (Test System: AMES SALMONELLA TYPHIMURIUM, Strain/Indicator: YG1024, Metabolic Activation: RAT, LIVER, S-9, AROCLOR 1254, Method: STANDARD PLATE) “active; positive”; (Test System: CHINESE HAMSTER OVARY, Strain/Indicator: CHO (HGPRT)/6-THIOGUANINE, Metabolic Activation: NONE, Method: STANDARD PLATE) “inactive; negative”; (Test System: CHINESE HAMSTER OVARY, Strain/Indicator: CHO (HGPRT)/6-THIOGUANINE, Metabolic Activation: RAT, LIVER, S-9, AROCLOR 1254, Method: STANDARD PLATE) “active; positive”; (Test System: UDS RODENT HEPATOCYTES, Strain/Indicator: THY INCORP, Metabolic Activation: NONE, Method: AUTORADIOGRAPHY) “inactive; negative”.

The values are drawn from PubChem BioAssay AID1259407 (Chemical Carcinogenesis Research Information System (CCRIS), 2018).
